In publication PMC3723327 (Journal of biomolecular screening, 2012):

Tests used:
MEKK2 [1] = biological target: T1, MEKK2 (Homo sapiens, UniProt Q9Y2U5); test: MEKK2 intrinsic ATPase activity assay; assay type: biochemical; settings: for inhibition at 1 µM: read-out: Inhibition in MEKK2 intrinsic ATPase assay screen (hit criterion)
T1 sequence (Q9Y2U5 1-619): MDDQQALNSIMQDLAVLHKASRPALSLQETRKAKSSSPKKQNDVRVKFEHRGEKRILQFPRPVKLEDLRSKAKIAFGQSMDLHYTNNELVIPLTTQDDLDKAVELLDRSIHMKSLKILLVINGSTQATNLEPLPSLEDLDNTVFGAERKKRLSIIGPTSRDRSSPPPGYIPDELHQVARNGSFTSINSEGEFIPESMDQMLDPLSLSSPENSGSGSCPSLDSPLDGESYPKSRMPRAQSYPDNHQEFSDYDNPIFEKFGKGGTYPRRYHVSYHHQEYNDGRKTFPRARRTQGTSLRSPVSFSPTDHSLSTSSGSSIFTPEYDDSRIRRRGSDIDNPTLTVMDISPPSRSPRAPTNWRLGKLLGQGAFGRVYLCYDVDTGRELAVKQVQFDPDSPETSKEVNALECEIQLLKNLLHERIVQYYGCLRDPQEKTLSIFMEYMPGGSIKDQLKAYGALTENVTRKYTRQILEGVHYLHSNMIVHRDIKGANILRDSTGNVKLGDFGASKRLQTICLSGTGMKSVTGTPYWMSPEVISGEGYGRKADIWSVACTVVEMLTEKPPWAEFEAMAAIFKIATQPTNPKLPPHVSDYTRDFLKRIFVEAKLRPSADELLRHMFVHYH

MEKK2 [2] = biological target: T1, MEKK2; test: MEKK2 TR-FRET binding assay; settings: 5 nM MEKK2, 25 nM kinase tracer 236
MEKK2 [3] = settings: read-out: Published MEKK2 Binding Assay IC50; TR-FRET binding assay; ref Invitrogen Lanthascreen Eu Kinase Binding Assay for MEKK2 Validation Packet; cited from earlier work
MEKK2 [4] = test: MEKK2 intrinsic ATPase activity assay; assay type: biochemical, human; settings: high compound concentrations
MEKK2 [5] = biological target: T2, MEKK2 (Homo sapiens, UniProt Q9Y2U5); test: MEKK2 intrinsic ATPase activity assay; assay type: biochemical; settings: MEKK2 from vendor 3 (catalytic domain only)
T2 sequence (Q9Y2U5 357-619): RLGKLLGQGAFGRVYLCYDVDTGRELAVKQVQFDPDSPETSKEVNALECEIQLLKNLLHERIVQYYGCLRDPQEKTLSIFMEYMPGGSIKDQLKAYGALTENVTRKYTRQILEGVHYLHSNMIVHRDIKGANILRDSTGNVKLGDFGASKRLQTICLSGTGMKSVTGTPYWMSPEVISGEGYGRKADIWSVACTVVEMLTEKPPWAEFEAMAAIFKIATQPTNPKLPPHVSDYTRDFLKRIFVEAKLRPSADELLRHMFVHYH

MEKK2 [6] = biological target: T1, MEKK2; test: MEKK2 transphosphorylation activity assay; assay type: biochemical; settings: 2 nM MEKK2, 200 nM MKK6, 3 μM ATP
[7] = 10 nM MEKK2 (vendor 1), 30 μM ATP

Structure (SMILES)	MEKK2 Intrinsic ATPase Assay Hill Slope ± SD (MEKK2 [1]; [7])	Binding Assay Hill Slope ± SD (MEKK2 [2])	inhibition at 1 µM (MEKK2 [1]) [%]	IC50 (MEKK2 [3]) [µM]	Transphosphorylation Assay Hill Slope ± SD (MEKK2 [6])	other results
Cc1ccc(Nc2nccc(N(C)c3ccc4c(C)n(C)nc4c3)n2)cc1S(N)(=O)=O [Pazopanib]	1.06 ± 0.07	1.05 ± 0.03	≥ 50	–	–	–
CN[C@@H]1C[C@H]2O[C@@](C)([C@@H]1OC)n1c3ccccc3c3c4c(c5c6ccccc6n2c5c31)C(=O)NC4 [Staurosporine]	–	–	–	–	–	MEKK2 Intrinsic ATPase Assay Hill Slope ± SD (MEKK2 [1]; 1 nM (instead of 10 nM) MEKK2 enzyme): 0.93 ± 0.13
Cc1nc(Nc2ncc(C(=O)Nc3c(C)cccc3Cl)s2)cc(N2CCN(CCO)CC2)n1 [Dasatinib]	1.10 ± 0.20	–	–	[…]	–	–
COc1cc(Nc2c(C#N)cnc3cc(OCCCN4CCN(C)CC4)c(OC)cc23)c(Cl)cc1Cl [Bosutinib]	1.07 ± 0.09	0.93 ± 0.05	≥ 50	–	1.03 ± 0.21	–

Second part, led by results:

MEKK2 Intrinsic ATPase Assay Hill Slope ± SD (MEKK2 [1]; [7])	Binding Assay Hill Slope ± SD (MEKK2 [2])	Structure (SMILES)	inhibition at 1 µM (MEKK2 [1]) [%]	IC50 (MEKK2 [3]) [µM]	Transphosphorylation Assay Hill Slope ± SD (MEKK2 [6])	other results
0.97 ± 0.13	–	Cc1cc(Nc2cc(N3CCN(C)CC3)nc(Sc3ccc(NC(=O)C4CC4)cc3)n2)[nH]n1 [VX-680]	–	2.3	–	–
1.06 ± 0.16	0.89 ± 0.04	CCN(CC)CCNC(=O)c1c(C)[nH]c(/C=C2\C(=O)Nc3ccc(F)cc32)c1C [Sunitinib]	–	[…]	0.96 ± 0.15	Inhibition of ATPase activity at high compound concentrations (MEKK2 [4]): complete inhibition; Intrinsic ATPase assay Hill slope ± SD (MEKK2 [5]): 1.01 ± 0.05; Difference in IC50 values between ATPase and binding assay (MEKK2 [1]; ATPase assay vs TR-FRET binding assay): 2.4 fold; Intrinsic ATPase assay Hill slope ± SD (MEKK2 [1]; MEKK2 from vendor 2): 1.01 ± 0.02
